Laboratory results: patent US20250213735A1, “NEUROPEPTIDE Y1 RECEPTOR (NPY1R) TARGETED THERAPEUTICS AND USES THEREOF” (Radionetics Oncology, Inc., priority 2023, published 2025)

What follows are compounds tested against hNPY1R (Homo sapiens (Human), UniProt P25929) (assay: NPY1R binding assay (SK-N-MC membrane, [125I]-Peptide YY competition)). Settings: crude SK-N-MC membranes endogenously expressing NPY1R; [125I]-Peptide YY (human) 0.05 nM; 120 min at room temperature; read-out: hNPY1R binding Ki.
Chain of hNPY1R (P25929 whole entry): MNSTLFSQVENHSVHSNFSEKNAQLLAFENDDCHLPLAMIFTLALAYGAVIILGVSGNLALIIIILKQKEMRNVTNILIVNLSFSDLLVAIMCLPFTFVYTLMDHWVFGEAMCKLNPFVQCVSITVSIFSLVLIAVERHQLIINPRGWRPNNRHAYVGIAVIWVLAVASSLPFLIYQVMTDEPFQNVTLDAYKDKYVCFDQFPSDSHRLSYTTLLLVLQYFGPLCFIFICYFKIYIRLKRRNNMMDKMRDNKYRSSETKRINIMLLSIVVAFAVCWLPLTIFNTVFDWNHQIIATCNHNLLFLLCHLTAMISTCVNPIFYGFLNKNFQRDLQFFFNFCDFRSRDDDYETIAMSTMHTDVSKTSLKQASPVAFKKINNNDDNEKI
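Further: bound radioligand separated by filtration over GF/C filter plates and counted, Ki obtained by non-linear regression.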

Structure (SMILES) | Ki
N=C(N)NCCC[C@@H](NC(=O)C(c1ccccc1)N1CCC2(CCC2)CC1)C(=O)NCc1ccc(O)cc1 (stereo partly drawn) [compound 89, (2R)-5-guanidino-N-(4-hydroxybenzyl)-2-(2-phenyl-2-(7-azaspiro[3.5]nonan-7-yl)acetamido)pentanamide] | 10 to 100 nM
CCC(=O)NCCNC(=O)/N=C(/N)NCCC[C@@H](NC(=O)[C@H](c1ccc(OCCCNC(=O)[C@@H](CC(N)=O)NC(=O)[C@@H](CO)NC(=O)CCNC(=O)CN2CCN(CC(=O)O)CCN(CC(=O)O)CCN(CC(=O)O)CC2)cc1)N1Cc2ccccc2C1)C(=O)NCc1c(F)cc(O)cc1F [compound 51, 2,2′,2″-(10-((8R,11R)-11-(2-amino-2-oxoethyl)-16-(4-((1S,4R,Z)-9-amino-4-((2,6-difluoro-4-hydroxybenzyl)carbamoyl)-1-(isoindolin-2-yl)-2,11,16-trioxo-3,8,10,12,15-pentaazaoctadec-9-en-1-yl)phenoxy)-8-(hydroxymethyl)-2,6,9,12-tetraoxo-3,7,10,13-tetraazahexadecyl)-1,4,7,10-tetraazacyclododecane-1,4,7-triyl)triacetic acid] | < 10 nM
CCC(=O)NCCNC(=O)/N=C(/N)NCCC[C@@H](NC(=O)[C@H](c1ccc(OCCCNC(=O)CCCCCNC(=O)CN2CCN(CC(=O)O)CCN(CC(=O)O)CCN(CC(=O)O)CC2)cc1)N1Cc2ccccc2C1)C(=O)NCc1ccc(O)cc1 [1A, 2,2′,2″-(10-(2-((6-((3-(4-((1S,4R,Z)-9-amino-4-((4-hydroxybenzyl)carbamoyl)-1-(isoindolin-2-yl)-2,11,16-trioxo-3,8,10,12,15-pentaazaoctadec-9-en-1-yl)phenoxy)propyl)amino)-6-oxohexyl)amino)-2-oxoethyl)-1,4,7,10-tetraazacyclododecane-1,4,7-triyl)triacetic acid] | < 10 nM
CCC(=O)NCCNC(=O)/N=C(/N)NCCC[C@@H](NC(=O)[C@H](c1ccc(OCCCNC(=O)C[C@H](O)C[C@H](O)CCNC(=O)CN2CCN(CC(=O)O)CCN(CC(=O)O)CCN(CC(=O)O)CC2)cc1)N1Cc2ccccc2C1)C(=O)NCc1c(F)cc(O)cc1F [compound 6, 2,2′,2″-(10-(2-(((3R,5R)-7-((3-(4-((1S,4R,Z)-9-amino-4-((2,6-difluoro-4-hydroxybenzyl)carbamoyl)-1-(isoindolin-2-yl)-2,11,16-trioxo-3,8,10,12,15-pentaazaoctadec-9-en-1-yl)phenoxy)propyl)amino)-3,5-dihydroxy-7-oxoheptyl)amino)-2-oxoethyl)-1,4,7,10-tetraazacyclododecane-1,4,7-triyl)triacetic acid-2,2,2-trifluoroacetic acid (1/1)] | < 10 nM
CCC(=O)NCCNC(=O)/N=C(/N)NCCC[C@@H](NC(=O)[C@H](c1ccc(OCCCN2CCN(C(=O)CCCCCNC(=O)CN3CCN(CC(=O)O)CCN(CC(=O)O)CCN(CC(=O)O)CC3)CC2)cc1)N1Cc2ccccc2C1)C(=O)NCc1c(F)cc(O)cc1F [compound 39, 2,2′,2″-(10-(2-((6-(4-(3-(4-((1S,4R,Z)-9-amino-4-((2,6-difluoro-4-hydroxybenzyl)carbamoyl)-1-(isoindolin-2-yl)-2,11,16-trioxo-3,8,10,12,15-pentaazaoctadec-9-en-1-yl)phenoxy)propyl)piperazin-1-yl)-6-oxohexyl)amino)-2-oxoethyl)-1,4,7,10-tetraazacyclododecane-1,4,7-triyl)triacetic acid] | < 10 nM
N=C(N)NCCC[C@@H](NC(=O)C(c1ccccc1)N1CCC(c2ccccc2)CC1)C(=O)NCc1ccc(O)cc1 (stereo partly drawn) [compound 86, (2R)-5-guanidino-N-(4-hydroxybenzyl)-2-(2-phenyl-2-(4-phenylpiperidin-1-yl)acetamido)pentanamide] | 100 to 1000 nM
